Measurements reported in article PMC10111420, “Optimization of Host Cell-Compatible, Antimicrobial Peptides Effective against Biofilms and Clinical Isolates of Drug-Resistant Bacteria” (ACS Infectious Diseases, 2023).
Where a SMILES comes first, the peptide text is derived from it. [ ]: non-standard residue; d: D form.

Assays:
[1] = system: MRSA wound biofilms; experiment: SEM of Tegaderm wound dressing, MRSA; assay type: in vivo, CD1 mice; conditions: dressing removed on Day 3, treated three times a day
Source text: (§1) The Tegaderm dressing used in the murine wound model is an excellent substrate for bacterial adhesion and biofilm formation.[5],[15] […] We imaged three to four randomly selected areas of each Tegaderm sample at two magnifications each. Each image is scored for the presence/absence of bacterial cells, either rod-shaped P. aeruginosa, ∼1 μm in diameter, or spherical MRSA cocci, ∼0.9 μm in diameter. Images are also scored for biofilm-like structures defined by having multiple bacteria embedded in an obvious three-dimensional matrix. These distinctions are shown by representative images of the fixed Tegaderm dressings in Figure 9A,B. In vehicle control samples, we observed that P. aeruginosa frequently forms an open, three-dimensional matrix in which many cells are entangled in μm-long fibers. We observed that MRSA also forms a matrix in which cells are close-packed in strands that comprise a large-scale mesh. Every SEM image (68/68) from vehicle control samples of the two bacteria contained obvious visible bacteria, and most of these images contained ≥50 individual cells. In samples from peptide-treated animals, 57 of 68 (84%) of images had no visible bacteria. […] We performed a statistical analysis of observed bacteria and biofilms using the binomial equation. P-values for all comparisons of treated vs vehicle were less than 0.001. […]

[2] = system: P. aeruginosa and MRSA wound biofilms; experiment: SEM of Tegaderm wound dressing, both bacteria pooled; assay type: in vivo, CD1 mice; conditions: 68 images from treated animals, Day 3 Tegaderm
Source text: as §1

## CC(C)C[C@@H](NC(=O)[C@@H](CCC(N)=O)NC(=O)[C@@H](CCCNC(=N)N)NC(=O)[C@@H](CCCNC(=N)N)NC(=O)[C@@H](C)NC(=O)[C@@H](Cc1c[nH]c2ccccc12)NC(=O)[C@@H](CCCNC(=N)N)NC(=O)[C@H](N)CCCNC(=N)N)C(=O)N[C@H](C)C(=O)N[C@H](Cc1ccccc1)C(=O)N[C@H](C)C(=O)N[C@H](Cc1ccccc1)C(=O)N[C@H](CCCNC(=N)N)C(=O)N[C@H](CCCNC(=N)N)C(N)=O [D-CONGA-Q7] (H-[dR][dR][dW][dA][dR][dR][dQ][dL][dA][dF][dA][dF][dR][dR]-NH2; N-terminus assumed)
[1]; images with bacteria / all random images
  MRSA: Bacteria Present (SEM images of Tegaderm): 3/35
[1]; images with biofilm / all random images
  MRSA: Biofilm present (SEM images of Tegaderm): 0/35
[2]
  Biofilm observed in SEM images: no biofilm was observed
